We go through 8 molecules from patent publication US20220389007A1, “INHIBITORS OF HUMAN IMMUNODEFICIENCY VIRUS REPLICATION” (VIIV HEALTHCARE UK (No. 5) LIMITED, priority 2019, published 2022).

One series deals with recombinant NL4-3 virus. Kind of series: HIV cell culture assay (antiviral activity, luciferase readout). In kind it is cell-based. The note with it: Human immunodeficiency virus 1, NL43, MT2, MT-2 cells infected for 4-5 days with recombinant NL4-3 virus carrying Renilla luciferase. The method in brief:
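MT-2 cells infected for 4-5 days with NL4-3 reference virus carrying Renilla luciferase in place of part of nef, in presence of serial compound dilutions. Luciferase read with live-cell substrate; EC50 from median effect equation fit.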

Series [1] in a line: Compound cytotoxicity, XTT-based colorimetric assay. To be noted: human; uninfected MT2 cells, day 4, XTT assay. In kind it is cell-based. The method in brief: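 Run under the antiviral-assay protocol but without virus. Viability was read on day 4 and CC50 values were derived from the readout.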
Background: Tetrazolium assays rely on reduction of a dye to a coloured formazan, in cell work by metabolically active cells.

pEC50: −log10 of the molar value.

In general, pEC50 refers to the negative decadic logarithm of the EC50, by convention in mol/L. A word on the CC50: it is the concentration that lowers cell viability or growth by half. With `Cn1nc(NS(C)(=O)=O)c2c(Cl)ccc(-n3c([C@H](Cc4cc(F)cc(F)c4)NC(=O)Cn4nc(C(F)F)c5c4C(F)(F)[C@@H]4C[C@H]54)nc4nc(-c5ccn(CCC(F)(F)F)n5)ccc4c3=O)c21` (atropisomer, axis not shown; (P)) [Example 89, N-((S)-1-((3P)-3-(4-chloro-1-methyl-3-(methylsulfonamido)-1H-indazol-7-yl)-4-oxo-7-(1-(3,3,3-trifluoropropyl)-1H-pyrazol-3-yl)-3,4-dihydropyrido[2,3-d]pyrimidin-2-yl)-2-(3,5-difluorophenyl)ethyl)-2-((3bS,4aR)-3-(difluoromethyl)-5,5-difluoro-3b,4,4a,5-tetrahydro-1H-cyclopropa[3,4]cyclopenta[1,2-c]pyrazol-1-yl)acetamide], in the series on recombinant NL4-3 virus, the pEC50 was 10.25. This molecule gave a CC50 at 4 day in series [1] above 100000 pM.
Consider `Cn1nc(NS(C)(=O)=O)c2c(Cl)ccc(-n3c([C@H](Cc4cc(F)cc(F)c4)NC(=O)Cn4nc(C(F)F)c5c4C(F)(F)[C@@H]4C[C@H]54)nc4nc(-c5cccc(C(F)(F)F)c5)ccc4c3=O)c21` (atropisomer, axis not shown; (P)) [Example 24, N-((S)-1-((3P)-3-(4-chloro-1-methyl-3-(methylsulfonamido)-1H-indazol-7-yl)-4-oxo-7-(3-(trifluoromethyl)phenyl)-3,4-dihydropyrido[2,3-d]pyrimidin-2-yl)-2-(3,5-difluorophenyl)ethyl)-2-((3bS,4aR)-3-(difluoromethyl)-5,5-difluoro-3b,4,4a,5-tetrahydro-1H-cyclopropa[3,4]cyclopenta[1,2-c]pyrazol-1-yl)acetamide], for which the pEC50 in the series on recombinant NL4-3 virus was 9.80. This molecule gave a CC50 at 4 day in series [1] above 100000 pM.
For the molecule `Cn1nc(NS(C)(=O)=O)c2c(Cl)ccc(-n3c([C@H](Cc4cc(F)cc(F)c4)NC(=O)Cn4nc(C(F)F)c5c4C(F)(F)[C@@H]4C[C@H]54)nc4nc(-c5cncc(C(F)(F)F)n5)ccc4c3=O)c21` (atropisomer, axis not shown; (P)) [Example 13, N-((S)-1-((3P)-3-(4-chloro-1-methyl-3-(methylsulfonamido)-1H-indazol-7-yl)-4-oxo-7-(6-(trifluoromethyl)pyrazin-2-yl)-3,4-dihydropyrido[2,3-d]pyrimidin-2-yl)-2-(3,5-difluorophenyl)ethyl)-2-((3bS,4aR)-3-(difluoromethyl)-5,5-difluoro-3b,4,4a,5-tetrahydro-1H-cyclopropa[3,4]cyclopenta[1,2-c]pyrazol-1-yl)acetamide], in the series with recombinant NL4-3 virus, the pEC50 is 10.40. In series [1], this molecule came in with a CC50 at 4 day above 100000 pM.
`Cn1nc(NS(C)(=O)=O)c2c(Cl)ccc(-n3c([C@H](Cc4cc(F)cc(F)c4)NC(=O)Cn4nc(C(F)F)c5c4C(F)(F)[C@@H]4C[C@H]54)nc4nc(-c5cncc(Cl)c5)ccc4c3=O)c21` (atropisomer, axis not shown; (P)) [Example 29, N-((S)-1-((3P)-3-(4-chloro-1-methyl-3-(methylsulfonamido)-1H-indazol-7-yl)-7-(5-chloropyridin-3-yl)-4-oxo-3,4-dihydropyrido[2,3-d]pyrimidin-2-yl)-2-(3,5-difluorophenyl)ethyl)-2-((3bS,4aR)-3-(difluoromethyl)-5,5-difluoro-3b,4,4a,5-tetrahydro-1H-cyclopropa[3,4]cyclopenta[1,2-c]pyrazol-1-yl)acetamide]: in the series on recombinant NL4-3 virus, the pEC50 was 10.24. The molecule further had a CC50 at 4 day in series [1] above 100000 pM.
Consider `COc1ncc(-c2ccc3c(=O)n(-c4ccc(Cl)c5c(NS(C)(=O)=O)nn(C)c45)c([C@H](Cc4cc(F)cc(F)c4)NC(=O)Cn4nc(C(F)F)c5c4C(F)(F)[C@@H]4C[C@H]54)nc3n2)s1` (atropisomer, axis not shown; (P)) [Example 82, N-((S)-1-((3P)-3-(4-chloro-1-methyl-3-(methylsulfonamido)-1H-indazol-7-yl)-7-(2-methoxythiazol-5-yl)-4-oxo-3,4-dihydropyrido[2,3-d]pyrimidin-2-yl)-2-(3,5-difluorophenyl)ethyl)-2-((3bS,4aR)-3-(difluoromethyl)-5,5-difluoro-3b,4,4a,5-tetrahydro-1H-cyclopropa[3,4]cyclopenta[1,2-c]pyrazol-1-yl)acetamide], for which the pEC50 in the series on recombinant NL4-3 virus is 10.16. This molecule also registered a half-maximal cytotoxic concentration (CC50) at 4 day in series [1] above 100000 pM.
On to `Cn1nc(NS(C)(=O)=O)c2c(Cl)ccc(-n3c([C@H](Cc4cc(F)cc(F)c4)NC(=O)Cn4nc(C(F)F)c5c4C(F)(F)[C@@H]4C[C@H]54)nc4nc(-c5cnn(CC(F)(F)F)c5)ccc4c3=O)c21` (atropisomer, axis not shown; (P)) [Example 75, N-((S)-1-((3P)-3-(4-chloro-1-methyl-3-(methylsulfonamido)-1H-indazol-7-yl)-4-oxo-7-(1-(2,2,2-trifluoroethyl)-1H-pyrazol-4-yl)-3,4-dihydropyrido[2,3-d]pyrimidin-2-yl)-2-(3,5-difluorophenyl)ethyl)-2-((3bS,4aR)-3-(difluoromethyl)-5,5-difluoro-3b,4,4a,5-tetrahydro-1H-cyclopropa[3,4]cyclopenta[1,2-c]pyrazol-1-yl)acetamide], for which, in the series on recombinant NL4-3 virus, the pEC50 is 10.05. Moreover, the CC50 at 4 day in series [1] is above 100000 pM.
Turning to `Cn1nc(NS(C)(=O)=O)c2c(Cl)ccc(-n3c([C@H](Cc4cc(F)cc(F)c4)NC(=O)Cn4nc(C(F)F)c5c4C(F)(F)[C@@H]4C[C@H]54)nc4nc(-c5cc(C(F)(F)F)cc(C(F)(F)F)n5)ccc4c3=O)c21` (atropisomer, axis not shown; (P)) [Example 14, N-((S)-1-(7-(4,6-bis(trifluoromethyl)pyridin-2-yl)-(3P)-3-(4-chloro-1-methyl-3-(methylsulfonamido)-1H-indazol-7-yl)-4-oxo-3,4-dihydropyrido[2,3-d]pyrimidin-2-yl)-2-(3,5-difluorophenyl)ethyl)-2-((3bS,4aR)-3-(difluoromethyl)-5,5-difluoro-3b,4,4a,5-tetrahydro-1H-cyclopropa[3,4]cyclopenta[1,2-c]pyrazol-1-yl)acetamide], in the series with recombinant NL4-3 virus, the pEC50 is 9.55. The molecule further registered a CC50 at 4 day in series [1] above 100000 pM.
Taken in the same sequence, the figures for `Cc1ccnc(-c2ccc3c(=O)n(-c4ccc(Cl)c5c(NS(C)(=O)=O)nn(C)c45)c([C@H](Cc4cc(F)cc(F)c4)NC(=O)Cn4nc(C(F)F)c5c4C(F)(F)[C@@H]4C[C@H]54)nc3n2)c1` (atropisomer, axis not shown; (P)) [Example 49, N-((S)-1-((3P)-3-(4-chloro-1-methyl-3-(methylsulfonamido)-1H-indazol-7-yl)-7-(4-methylpyridin-2-yl)-4-oxo-3,4-dihydropyrido[2,3-d]pyrimidin-2-yl)-2-(3,5-difluorophenyl)ethyl)-2-((3bS,4aR)-3-(difluoromethyl)-5,5-difluoro-3b,4,4a,5-tetrahydro-1H-cyclopropa[3,4]cyclopenta[1,2-c]pyrazol-1-yl)acetamide] were 10.74 and above 100000 pM.
